Legend:
Assay in all cases: relative viability (nuclei count vs DMSO), 5 days (fraction); higher = more cells survive
[1] = system: NCI-H1395
How it was run: (§1)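 Nuclei were stained with Hoechst during a one-step fixation (final 0.05% Triton X-100, 1% formaldehyde, 1 ug/ml Hoechst) carried out 5 days after dosing, then counted on 4× images. The cells, lung cancer lines in 1536-well plates, had been dosed by pin tool the day after seeding with one drug alone or a fixed anchor-drug dose plus five library-drug doses (not always all listed) in √10 steps. Relative viability is the nuclei count in treated wells divided by that in vehicle wells, and each value is the median of duplicate plates.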

[2] = system: ChaGo-K-1
How it was run: as §1

[3] = system: NCI-H1993
How it was run: as §1

[4] = system: NCI-H2405
How it was run: as §1

[5] = system: EMC-BAC-2
How it was run: as §1

[6] = system: NCI-H1793
How it was run: as §1

[7] = system: NCI-H23
How it was run: as §1

[8] = system: HCC-15
How it was run: as §1

[9] = system: LC-2-ad
How it was run: as §1

[10] = system: NCI-H358
How it was run: as §1

[11] = system: HCC-366
How it was run: as §1

[12] = system: NCI-H1944
How it was run: as §1

[13] = system: HOP-62
How it was run: as §1

[14] = system: NCI-H2228
How it was run: as §1

[15] = system: HCC-78
How it was run: as §1

[16] = system: HARA
How it was run: as §1

[17] = system: COR-L23
How it was run: as §1

[18] = system: NCI-H2023
How it was run: as §1

[19] = system: NCI-H2126
How it was run: as §1

[20] = system: ABC-1
How it was run: as §1

[21] = system: SK-LU-1
How it was run: as §1

[22] = system: NCI-H838
How it was run: as §1

Nc1ccn([C@@H]2O[C@H](CO)[C@@H](O)[C@@H]2O)c(=O)n1 [Cytarabine] + Cc1nc(Nc2ncc(C(=O)Nc3c(C)cccc3Cl)s2)cc(N2CCN(CCO)CC2)n1 [Dasatinib] (partner 0.075 µM) was tested, and the relative viability ([1]; first compound 0.005 µM) was 0.385, the relative viability ([1]; first compound 0.01581 µM) was 0.34 and the relative viability ([1]; first compound 0.05 µM) was 0.374. It also gave a relative viability ([1]; first compound 0.1581 µM) of 0.319, a relative viability ([1]; first compound 0.5 µM) of 0.282 and a relative viability ([2]; first compound 0.005 µM) of 0.518. For the same compound, the relative viability ([2]; first compound 0.01581 µM) was 0.347, the relative viability ([2]; first compound 0.05 µM) was 0.384 and the relative viability ([2]; first compound 0.1581 µM) was 0.182. For the same compound, the relative viability ([2]; first compound 0.5 µM) was 0.184, the relative viability ([3]; first compound 0.005 µM) was 0.74 and the relative viability ([3]; first compound 0.01581 µM) was 0.58. The relative viability ([3]; first compound 0.05 µM) was 0.523, the relative viability ([3]; first compound 0.1581 µM) was 0.49 and the relative viability ([3]; first compound 0.5 µM) was 0.425. For the same compound, the relative viability ([4]; first compound 0.005 µM) was 0.206, the relative viability ([4]; first compound 0.01581 µM) was 0.17 and the relative viability ([4]; first compound 0.05 µM) was 0.167. It also gave a relative viability ([4]; first compound 0.1581 µM) of 0.144, a relative viability ([4]; first compound 0.5 µM) of 0.146 and a relative viability ([5]; first compound 0.005 µM) of 0.344. For the same compound, the relative viability ([5]; first compound 0.01581 µM) was 0.278, the relative viability ([5]; first compound 0.05 µM) was 0.203 and the relative viability ([5]; first compound 0.1581 µM) was 0.154. The relative viability ([5]; first compound 0.5 µM) was 0.113, the relative viability ([6]; first compound 0.005 µM) was 0.364 and the relative viability ([6]; first compound 0.01581 µM) was 0.37. For the same compound, the relative viability ([6]; first compound 0.05 µM) was 0.387, the relative viability ([6]; first compound 0.1581 µM) was 0.257 and the relative viability ([6]; first compound 0.5 µM) was 0.191. It also gave a relative viability ([7]; first compound 0.005 µM) of 0.864, a relative viability ([7]; first compound 0.01581 µM) of 0.541 and a relative viability ([7]; first compound 0.05 µM) of 0.655. The relative viability ([7]; first compound 0.1581 µM) was 0.236, the relative viability ([7]; first compound 0.5 µM) was 0.187 and the relative viability ([8]; first compound 0.005 µM) was 0.559. The relative viability ([8]; first compound 0.01581 µM) was 0.679, the relative viability ([8]; first compound 0.05 µM) was 0.683 and the relative viability ([8]; first compound 0.1581 µM) was 0.479. For the same compound, the relative viability ([8]; first compound 0.5 µM) was 0.401, the relative viability ([9]; first compound 0.005 µM) was 0.358 and the relative viability ([9]; first compound 0.01581 µM) was 0.308. It also gave a relative viability ([9]; first compound 0.05 µM) of 0.347, a relative viability ([9]; first compound 0.1581 µM) of 0.225 and a relative viability ([9]; first compound 0.5 µM) of 0.214. For the same compound, the relative viability ([10]; first compound 0.005 µM) was 0.206, the relative viability ([10]; first compound 0.01581 µM) was 0.167 and the relative viability ([10]; first compound 0.05 µM) was 0.131. For the same compound, the relative viability ([10]; first compound 0.1581 µM) was 0.0707, the relative viability ([10]; first compound 0.5 µM) was 0.0702 and the relative viability ([11]; first compound 0.005 µM) was 0.573. For the same compound, the relative viability ([11]; first compound 0.01581 µM) was 0.402, the relative viability ([11]; first compound 0.05 µM) was 0.424 and the relative viability ([11]; first compound 0.1581 µM) was 0.148. It also gave a relative viability ([11]; first compound 0.5 µM) of 0.0563, a relative viability ([12]; first compound 0.005 µM) of 0.177 and a relative viability ([12]; first compound 0.01581 µM) of 0.123. The relative viability ([12]; first compound 0.05 µM) was 0.117, the relative viability ([12]; first compound 0.1581 µM) was 0.0903 and the relative viability ([12]; first compound 0.5 µM) was 0.0942. The relative viability ([13]; first compound 0.005 µM) was 0.58, the relative viability ([13]; first compound 0.01581 µM) was 0.531 and the relative viability ([13]; first compound 0.05 µM) was 0.421. For the same compound, the relative viability ([13]; first compound 0.1581 µM) was 0.157, the relative viability ([13]; first compound 0.5 µM) was 0.11 and the relative viability ([14]; first compound 0.005 µM) was 0.299. For the same compound, the relative viability ([14]; first compound 0.01581 µM) was 0.158, the relative viability ([14]; first compound 0.05 µM) was 0.159 and the relative viability ([14]; first compound 0.1581 µM) was 0.0724. It also gave a relative viability ([14]; first compound 0.5 µM) of 0.0511, a relative viability ([15]; first compound 0.005 µM) of 0.585 and a relative viability ([15]; first compound 0.01581 µM) of 0.363. It also gave a relative viability ([15]; first compound 0.05 µM) of 0.27, a relative viability ([15]; first compound 0.1581 µM) of 0.228 and a relative viability ([15]; first compound 0.5 µM) of 0.208. The relative viability ([16]; first compound 0.005 µM) was 0.309, the relative viability ([16]; first compound 0.01581 µM) was 0.222 and the relative viability ([16]; first compound 0.05 µM) was 0.227. It also gave a relative viability ([16]; first compound 0.1581 µM) of 0.0854, a relative viability ([16]; first compound 0.5 µM) of 0.0721 and a relative viability ([17]; first compound 0.005 µM) of 0.405. It also gave a relative viability ([17]; first compound 0.01581 µM) of 0.312, a relative viability ([17]; first compound 0.05 µM) of 0.287 and a relative viability ([17]; first compound 0.1581 µM) of 0.17. The relative viability ([17]; first compound 0.5 µM) was 0.14, the relative viability ([18]; first compound 0.005 µM) was 0.315 and the relative viability ([18]; first compound 0.01581 µM) was 0.219. It also gave a relative viability ([18]; first compound 0.05 µM) of 0.145, a relative viability ([18]; first compound 0.1581 µM) of 0.107 and a relative viability ([18]; first compound 0.5 µM) of 0.0893. The relative viability ([19]; first compound 0.005 µM) was 0.516, the relative viability ([19]; first compound 0.01581 µM) was 0.55 and the relative viability ([19]; first compound 0.05 µM) was 0.429. For the same compound, the relative viability ([19]; first compound 0.1581 µM) was 0.378, the relative viability ([19]; first compound 0.5 µM) was 0.32 and the relative viability ([20]; first compound 0.005 µM) was 0.501. For the same compound, the relative viability ([20]; first compound 0.01581 µM) was 0.492, the relative viability ([20]; first compound 0.05 µM) was 0.564 and the relative viability ([20]; first compound 0.1581 µM) was 0.473. It also gave a relative viability ([20]; first compound 0.5 µM) of 0.332, a relative viability ([21]; first compound 0.005 µM) of 0.179 and a relative viability ([21]; first compound 0.01581 µM) of 0.157. For the same compound, the relative viability ([21]; first compound 0.05 µM) was 0.17, the relative viability ([21]; first compound 0.5 µM) was 0.147 and the relative viability ([22]; first compound 0.005 µM) was 0.281. It also gave a relative viability ([22]; first compound 0.01581 µM) of 0.274, a relative viability ([22]; first compound 0.05 µM) of 0.229 and a relative viability ([22]; first compound 0.1581 µM) of 0.214. For the same compound, the relative viability ([22]; first compound 0.5 µM) was 0.164.

Source: the supplement of paper PMC10307832
